The text below walks through data of ChEMBL document CHEMBL1127383, “Improved binding affinity for cyclophilin A by a cyclosporin derivative singly modified at its effector domain” (J Med Chem, 1994).

The target of assay [1] is Peptidyl-prolyl cis-trans isomerase A (Homo sapiens, UniProt P62937). Briefly: Compound was evaluated for in vitro binding affinity to cyclophilin A (CyP-A).
A short description of assay [2]: Compound was evaluated for in vitro immunosuppressive activity in the interleukin-2 reporter gene assay (IL2-RG). It counts as functional. (In general: A reporter such as luciferase makes a cellular process visible.)
The species entered for another assay is Mus musculus. The assay can be described thus: Compound was evaluated for in vitro immunosuppressive activity in the mouse mixed lymphocyte reaction (MLR-M). Format: functional.

Chain of Peptidyl-prolyl cis-trans isomerase A (P62937 whole entry): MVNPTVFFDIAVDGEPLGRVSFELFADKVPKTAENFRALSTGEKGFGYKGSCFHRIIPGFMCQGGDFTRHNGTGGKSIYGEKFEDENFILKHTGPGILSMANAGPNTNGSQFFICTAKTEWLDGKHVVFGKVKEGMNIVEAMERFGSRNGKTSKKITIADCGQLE

What is called IC50 is the midpoint of a concentration-inhibition curve. The low end stands for higher potency, the high end for lower potency. Consider `C/C=C/C[C@@H](C)[C@@H](O)[C@H]1C(=O)N[C@@H](CC)C(=O)N(C)CC(=O)N(C)[C@@H](C[C@@H](C)CC)C(=O)N[C@@H](C(C)C)C(=O)N(C)[C@@H](CC(C)C)C(=O)N[C@@H](C)C(=O)N[C@H](C)C(=O)N(C)[C@@H](CC(C)C)C(=O)N(C)[C@@H](CC(C)C)C(=O)N(C)[C@@H](C(C)C)C(=O)N1C`, for which the IC50 in assay [1] turned out to be 16 nM; in assay [2], 14 nM; in the assay filed under Mus musculus, 46 nM.
`C/C=C/C[C@@H](C)[C@@H](O)[C@H]1C(=O)NC(CC)C(=O)N(C)CC(=O)N(C)[C@@H](C[C@@H](C)CC)C(=O)N[C@@H](C(C)C)C(=O)N(C)[C@@H](CC(C)C)C(=O)N[C@@H](C)C(=O)N[C@H](C)C(=O)N(C)[C@@H](CC(C)C)C(=O)N(C)[C@@H](CC(C)C)C(=O)N(C)C(C(C)C)C(=O)N1C` (single isomer, unassigned): the values for the IC50 (in assay [1]; in assay [2]; in the assay filed under Mus musculus) were 2.3 nM, 17 nM and 45 nM, respectively.
